Results on 1 compound are retold here after article PMC11995211, “Design, Synthesis, and Evaluation of a New Fluorescent Ligand for the M2 Muscarinic Acetylcholine Receptor” (ACS Medicinal Chemistry Letters, 2025).

The target in one data set is T1, hM1R (Homo sapiens, UniProt P11229).
T1 construct: expressed in transfected cells; host or cells: CHO cell membranes
T1 sequence (P11229 1-460): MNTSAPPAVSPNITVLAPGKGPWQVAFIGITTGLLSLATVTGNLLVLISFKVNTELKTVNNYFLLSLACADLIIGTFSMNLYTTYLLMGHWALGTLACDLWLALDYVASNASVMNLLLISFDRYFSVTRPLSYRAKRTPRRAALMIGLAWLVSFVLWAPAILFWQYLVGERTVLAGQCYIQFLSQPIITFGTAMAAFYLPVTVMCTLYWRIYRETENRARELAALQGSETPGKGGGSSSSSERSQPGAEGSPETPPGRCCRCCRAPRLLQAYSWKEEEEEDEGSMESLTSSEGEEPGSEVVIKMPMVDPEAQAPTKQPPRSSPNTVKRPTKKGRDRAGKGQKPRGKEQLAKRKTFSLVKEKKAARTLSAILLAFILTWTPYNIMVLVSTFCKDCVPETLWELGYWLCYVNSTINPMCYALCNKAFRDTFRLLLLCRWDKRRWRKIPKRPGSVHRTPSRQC
Nature of the data set: Radioligand competition binding, [3H]-scopolamine (N-methyl), CHO cell membranes, hM1R. To be noted: 10 μM compound; radioligand binding; read-out: inhibition at 10 μM (M1). (Displacement assays read how much labelled ligand stays bound in the presence of the test substance.)

In another data set the target is T2, hM2R (Homo sapiens, UniProt P08172).
T2 construct: expressed in transfected cells; host or cells: CHO cell membranes
T2 sequence (P08172 1-466): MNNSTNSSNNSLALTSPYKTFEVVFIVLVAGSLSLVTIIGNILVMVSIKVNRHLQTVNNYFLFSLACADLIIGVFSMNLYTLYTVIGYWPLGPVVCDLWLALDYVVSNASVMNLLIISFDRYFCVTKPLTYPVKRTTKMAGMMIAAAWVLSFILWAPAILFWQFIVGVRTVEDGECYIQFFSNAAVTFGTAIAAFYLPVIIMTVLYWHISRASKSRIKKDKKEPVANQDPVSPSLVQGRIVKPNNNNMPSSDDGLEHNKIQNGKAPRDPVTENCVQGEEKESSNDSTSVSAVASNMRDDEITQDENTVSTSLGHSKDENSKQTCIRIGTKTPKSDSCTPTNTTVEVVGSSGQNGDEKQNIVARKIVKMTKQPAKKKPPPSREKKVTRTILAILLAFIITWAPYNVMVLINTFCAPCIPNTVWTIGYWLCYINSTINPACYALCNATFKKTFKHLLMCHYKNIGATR
As to the kind of experiment: Radioligand competition binding, [3H]-scopolamine (N-methyl), CHO cell membranes, hM2R. To be noted: mean ± SD, n = 3; membranes from CHO cells transfected with hM2R; read-out: Receptor Ki M2.

The next data set concerns the target T3, hM4R (Homo sapiens, UniProt P08173).
T3 construct: expressed in transfected cells; host or cells: CHO cell membranes
T3 sequence (P08173 1-479): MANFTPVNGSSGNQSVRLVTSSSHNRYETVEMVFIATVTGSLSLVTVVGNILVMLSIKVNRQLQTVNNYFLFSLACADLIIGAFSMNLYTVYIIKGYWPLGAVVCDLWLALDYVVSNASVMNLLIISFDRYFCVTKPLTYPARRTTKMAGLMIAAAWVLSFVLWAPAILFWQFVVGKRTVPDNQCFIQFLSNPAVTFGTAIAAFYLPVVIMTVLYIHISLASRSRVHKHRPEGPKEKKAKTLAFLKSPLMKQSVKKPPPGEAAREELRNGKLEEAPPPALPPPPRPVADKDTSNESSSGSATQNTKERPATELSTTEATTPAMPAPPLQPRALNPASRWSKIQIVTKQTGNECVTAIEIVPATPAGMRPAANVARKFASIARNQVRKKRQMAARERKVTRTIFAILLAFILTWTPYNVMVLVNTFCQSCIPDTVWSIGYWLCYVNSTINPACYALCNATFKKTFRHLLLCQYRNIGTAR
Nature of the data set: Radioligand competition binding, [3H]-scopolamine (N-methyl), CHO cell membranes, hM4R. To be noted: mean ± SD, n = 3; membranes from CHO cells transfected with hM4R; read-out: Receptor Ki M4.

A short description of data set [1]: Photophysical measurements and photostability. It counts as physicochemical. How it is done: Next, we investigated the photophysical properties of the fluorescent probe 33. In acetonitrile, the probe has an absorption maximum at 520 nm and a fluorescence maximum at 547 nm with a Stokes shift of 27 nm. […] The dye was pH sensitive, with intensity increasing at higher pH. Following a literature procedure, we examined the effect of protein (BSA) on the ligand. […]
Photophysical Measurements
Absorbance measurements were performed using a Jasco V-750 Spectrophotometer standard cell quartz cuvette with 1 cm light path length, 1 nm bandwidth, 400 nm/min recording speed) operating at 21 °C. The fluorescence measurements were carried out on a Jasco FP8300 spectrofluorometer in a standard cell quartz cuvette (1 cm light path length). Both the excitation and emission slit widths were both set to 2.5 nm, and the scanning speed was 400 nm/min. Pure solvents were used for blank correction. Absorbance spectra and excitation spectra were recorded in the range of […]. For the emission spectra, we excited the sample at the excitation maximum, and measured it from excitation maximum plus 10 nm to 800 nm.
Quantum yields were calculated by recording the fluorescence spectra of a series of different concentrations. The gradient of the integrated fluorescence intensities plotted against absorbance at the excitation wavelength was used for the calculation of the quantum yields:
The compound 33 was excited at 360 nm, OG488-NHS was used as reference (Φwater = […]
Solvent screening measurements were conducted using 5 μM solutions of the fluorescent probe 33 in various solvents, including acetonitrile, 1,4 -dioxane, water, toluene, dichloromethane, tetrahydrofuran, ethanol, PBS buffer (pH=5; 7; 7.4, 9), PBS buffer (pH=7.4) with 1% BSA, and ethyl acetate. Photostability measurements were performed with 5 μM solution of in PBS buffer (pH=7). The samples were exposed to a 4 W light-emitting diode emitting at 450 nm, and emission spectra were recorded.

The term inhibition denotes how much of the control response was suppressed. For orientation: Ki means the dissociation constant of the complex between target and ligand, obtained from inhibition or displacement. For `O=C(CCOCCOCCNC(=O)c1ccc(-c2c3cc(F)c(=O)cc-3oc3cc(O)c(F)cc23)c(C(=O)O)c1)NCCOCCOCCNc1ccccc1C(=O)N1CCC(N2CCC(Cc3ccc(S(=O)(=O)c4cccc(Cl)c4)cc3)CC2)CC1` [Compound 33], the inhibition at 10 µM at hM1R turned out to be 38%. Further, on hM2R, the Ki is 0.0024 ± 0.0004 µM. The Ki on hM4R was determined as 0.0541 ± 0.0104 µM. The “photostability: irradiation time to half of the original fluorescence intensity” value in data set [1] (PBS (pH 7), 5 μM, 4 W, 450 nm light) is listed as 10 min. In data set [1] (in acetonitrile), the Stokes shift stood at 27 nm, the absorption maximum is recorded as 520 nm, the brightness is 8501 and the fluorescence maximum stood at 547 nm. For the same compound, the “molar extinction coefficient (ε)” value in data set [1] (in acetonitrile) worked out at 42504.9 M^–1 cm^–1. Moreover, in data set [1] (in acetonitrile, OG488-NHS as reference), the “fluorescence quantum yield (Φf)” value worked out at 0.20.
